According to article PMC11335206, “Exploring oak processionary caterpillar induced lepidopterism (part 2): ex vivo bio-assays unmask the role of TRPV1” (Cellular and Molecular Life Sciences: CMLS, 2024):
Positions of bridges follow the written chain, without caps; N, C: chain ends. No end group written: not given here.

Tests used:
hTRPV1 = hTRPV1 (Homo sapiens, UniProt Q8NER1); assay: TEVC electrophysiology on TRPV1 expressing oocytes; assay type: cell-based
Source text: We used Xenopus laevis oocytes as a heterologous expression system in electrophysiological experiments to express ligand-gated and voltage-gated ion channels. Molecular biology techniques (subcloning, transformation, linearization and transcription) were used to make RNA encoding: (1) transient receptor potential channel (hTRPV1 and hTRPA1), (2) histamine receptors (hH1R and hH4R), (3) bradykinin receptor (hB2R), (4) nicotinic acetylcholine receptor (adult muscle type hα1β1δε nAChR and neuronal hα7 nAChR), (5) acid-sensing ion channel (rASIC1a), (6) voltage-gated sodium channels (rNav1.1, rNav1.2, rNav1.3, rNav1.4, mNav1.6 and hNav1.8) and their auxiliary subunits rβ1 and hβ1 and (7) potassium channels (hKv1.1, hKv1.2, hKv1.3, hKv1.4, hKv1.5, hKv1.6, hKv3.1, hKv10.1, mGIRK1, mGIRK2 and mIRK1). Plasmids corresponding to each channel or receptor underwent linearization using specific restriction enzymes and subsequent transcription with the T3, T7, or SP6 mMESSAGE mMACHINE transcription kit (Ambion, USA). Depending on the channel type, defolliculated oocytes were injected with 10–50 nL of cRNA at a concentration of 1 ng/nL using a micro-injector (Nanoject II; Drummond Scientific Company, USA). Electrophysiological experiments were conducted following cRNA injection, with an incubation period of 1–5 days at 16 °C in ND96 buffer.

hH4R = assay: TEVC on H4R-GIRK1/GIRK2-RGS4 oocytes; assay type: cell-based, human
Protocol: (§2) We used Xenopus laevis oocytes as a heterologous expression system in electrophysiological experiments to express ligand-gated and voltage-gated ion channels. […] Plasmids corresponding to each channel or receptor underwent linearization using specific restriction enzymes and subsequent transcription with the T3, T7, or SP6 mMESSAGE mMACHINE transcription kit (Ambion, USA). Depending on the channel type, defolliculated oocytes were injected with 10–50 nL of cRNA at a concentration of 1 ng/nL using a micro-injector (Nanoject II; Drummond Scientific Company, USA). Electrophysiological experiments were conducted following cRNA injection, with an incubation period of 1–5 days at 16 °C in ND96 buffer.
A two-electrode voltage clamp (TEVC) system utilizing a GeneClamp 500 amplifier (Molecular Devices, Downingtown, PA, USA) was under the control of a pClamp data acquisition system (Axon Instruments, USA), and pClamp Clampex 10.4 software (Axon Instruments®, USA). This setup was employed to measure currents across the cell membrane. The whole-cell currents from the oocytes were recorded at room temperature (18–22 °C). Two micro-electrodes, comprising voltage and current electrodes, were crafted from borosilicate glass capillaries (1.14 mm outside diameter, 0.7 mm inside diameter), pulled using a microelectrode puller, PUL-1 (World Precision Instruments, USA). […]

[1] = ref [28], cited from earlier work
hTRPA1 = assay: TEVC electrophysiology on TRPA1 expressing oocytes; assay type: cell-based, human; settings: 1 µM A967079; 50 µM mustard oil; holding −90 mV; n ≥ 3
Protocol: as §2
(§3) A two-electrode voltage clamp (TEVC) system utilizing a GeneClamp 500 amplifier (Molecular Devices, Downingtown, PA, USA) was under the control of a pClamp data acquisition system (Axon Instruments, USA), and pClamp Clampex 10.4 software (Axon Instruments®, USA). This setup was employed to measure currents across the cell membrane. The whole-cell currents from the oocytes were recorded at room temperature (18–22 °C). […]
TRPV1 and TRPA1 currents were continuously monitored in a perfusing ND96 solution, following a protocol at −90 mV for 400 s. […]

[2] = system: individuals with atopic dermatitis; settings: topical, phase III, ref [36]; cited from earlier work
Source text: The results are consistent with the discoveries presented by Yao et al. (2019) regarding Latoia consocia, a caterpillar indigenous to South-West China. […] Despite substantial investments in the quest for TRPV1 antagonists, yet no antagonist is available on the market. Presently, a ...

TRPV1 [3] = system: TRPV1; design: method as in earlier work; settings: Latoia consocia; ref [35] Yao et al. (2019); cited from earlier work
hH1R = assay type: cell-based, human
Protocol: as §2, §3
(§4) The H1R and B2R couples with Gαq/11 proteins, initiating the release of Ca^2+ from the intracellular stores. This rise in intracellular Ca^2+ will activate the Ca^2+-activated Cl^− channels, serving as a sensitive readout.

hB2R = assay: TEVC on B2R expressing oocytes; assay type: cell-based, human; settings: 1 µM bradykinin; ramp −120 to +70 mV from −20 mV
Protocol: as §2, §3, §4

TRPV1 [4] = settings: HEK293 cells, ref [44] Ahern et al. (2005), cited from earlier work
Source text: (§1) Putrescine is a small aliphatic polyamine synthesized by ornithine decarboxylase (ODC) and found in the venom of other animals. Under physiological conditions, putrescine undergoes complete protonation. This property enables putrescine to interact with negatively charged macromolecules, such as DNA, RNA, ATP, phospholipids, or proteins. As a result, it plays a significant role in v ...

[5] = system: histamine-N-methyltransferase; settings: ref [47]; cited from earlier work
Source text: as §1

rat paw = settings: 10 µmol/paw, subcutaneous injection, ref [46]; cited from earlier work
Source text: as §1

Sequence of hTRPV1 (Q8NER1 whole entry): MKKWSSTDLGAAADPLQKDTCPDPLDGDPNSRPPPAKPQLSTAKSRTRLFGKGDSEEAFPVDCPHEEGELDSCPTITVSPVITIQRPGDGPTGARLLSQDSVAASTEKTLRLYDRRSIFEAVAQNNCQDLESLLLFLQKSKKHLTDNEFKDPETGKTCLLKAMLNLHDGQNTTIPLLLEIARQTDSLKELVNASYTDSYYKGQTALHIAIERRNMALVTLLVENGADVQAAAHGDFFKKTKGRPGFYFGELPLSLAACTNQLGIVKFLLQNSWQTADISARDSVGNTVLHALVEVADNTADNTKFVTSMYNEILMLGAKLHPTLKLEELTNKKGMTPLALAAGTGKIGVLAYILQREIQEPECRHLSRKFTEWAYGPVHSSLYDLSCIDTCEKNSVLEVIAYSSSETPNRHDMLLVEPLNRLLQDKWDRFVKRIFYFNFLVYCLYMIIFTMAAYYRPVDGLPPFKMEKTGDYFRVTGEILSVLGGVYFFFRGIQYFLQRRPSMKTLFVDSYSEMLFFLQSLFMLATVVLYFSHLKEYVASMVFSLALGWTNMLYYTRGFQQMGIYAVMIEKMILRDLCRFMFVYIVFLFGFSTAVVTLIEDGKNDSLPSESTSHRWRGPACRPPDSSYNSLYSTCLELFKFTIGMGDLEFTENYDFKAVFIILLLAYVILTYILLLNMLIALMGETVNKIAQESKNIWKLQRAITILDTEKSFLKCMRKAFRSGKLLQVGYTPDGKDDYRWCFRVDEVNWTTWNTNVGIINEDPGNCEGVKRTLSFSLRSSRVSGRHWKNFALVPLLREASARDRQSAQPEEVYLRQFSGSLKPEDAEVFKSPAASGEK

COc1cc(CNC(=O)CCCC/C=C/C(C)C)ccc1O [capsaicin]
TRPV1 current by agonist (hTRPV1): a current increase

CN1CCN(C(=O)c2cc3cc(Cl)ccc3[nH]2)CC1 [JNJ 7777120]
block of histamine effect on H4R (hH4R): The effect of histamine (blue) was blocked

COc1ccc2c(c1)c(CC(=O)O)c(C)n2C(=O)c1ccc(Cl)cc1 [indomethacin]
reduction of secapin-2 edema formation and pain sensation ([1]; nonspecific antagonist of cyclooxygenase): did not show any reducing effects on edema formation and pain sensation

CCC(=N\O)/C(C)=C/c1ccc(F)cc1 [A967079]
block of mustard oil effect on TRPA1 (hTRPA1): is blocked

CCCc1nc(C(F)(F)F)ccc1/C=C/C(=O)N[C@H](C)c1cc(F)c(NS(C)(=O)=O)c(F)c1 [Asivatrep]
clinical efficacy [2]: encouraging results | safety profile [2]: a favorable safety profile

Oc1cc2c(cc1O)CN(C(=S)NCCc1ccc(Cl)cc1)CCC2 [capsazepine]
block of venom extract-induced TRPV1 current increase (hTRPV1; 10 µM capsazepine, 0.4 µg/µL extract + 1 µM capsaicin, holding −90 mV, n ≥ 3): the current increase by whole venom setae extract disappeared | reduction of caterpillar-induced pain (TRPV1 [3]): a notable reduction

CC(c1cc2ccccc2s1)N(O)C(N)=O (stereo not drawn) [Zileuton]
suppression of pain and edema induced by secapin-2 ([1]; 5-lipoxygenase blocker, secapin-2 injection): suppress pain and edema responses

NCCc1c[nH]cn1 [histamine]
H1R current by agonist (hH1R): a current increase

DHETDLDDSNVPRIGRHIIDAPKRGCPEGYRKDHQGKCREVL (disulfide 26-38) [TPTX1-Tp1]
effect on TRPV1, peptide alone (hTRPV1; 1 µM TPTX1-Tp1 (Fig. 4B), no capsaicin, ramp −120 to +70 mV from −20 mV, ND96): does not have an effect on TRPV1 injected oocytes | TRPV1 current with capsaicin (hTRPV1; TPTX1-Tp1 combined with 0.1 µM capsaicin, ramp −120 to +70 mV from −20 mV, ND96): induces an increase in the current

bradykinin
B2R conductance by agonist (hB2R): evoked a change of conductance

NCCCCN [putrescine]
TRPV1 activity, putrescine alone (TRPV1 [4]; 5 mM putrescine alone): did not induce a detectable TRPV1 activity | enhancement of capsaicin-evoked TRPV1 current (TRPV1 [4]; 5 mM putrescine with 30 nM capsaicin): remarkably intensified the current evoked by 30 nM capsaicin | histamine-N-methyltransferase activity [5]: inhibiting histamine-N-methyltransferase activity | duration of sustained edema (rat paw): 6 h | mechanical allodynia (rat paw): induction of mechanical allodynia
